Measured values: ChEMBL document CHEMBL4196025 (Eur J Med Chem, 2018)
The source made the active and inactive calls. The rule behind the calls is not given here.

Legend:
[1] = biological target: Acetylcholinesterase (Electrophorus electricus, UniProt O42275); test: Inhibition of electric eel AChE using acetylthiocholine iodide as substrate preincubated for 5 mins followed by DTNB addition for 5 mins and subsequent addition of substrate measured after 3 mins by Ellman's method
[2] = biological target: Amyloid-beta precursor protein (Homo sapiens) (UniProt P05067); test: Inhibition of self-induced amyloid beta (1 to 42) (unknown origin) aggregation up to 100 uM measured after 24 hrs by ThT fluorescence assay
[3] = biological target: T1, Acetylcholinesterase (Homo sapiens, UniProt P22303); test: Inhibition of human erythrocyte AChE using acetylthiocholine iodide as substrate preincubated for 5 mins followed by DTNB addition for 5 mins and subsequent addition of substrate measured after 3 mins by Ellman's method
[4] = biological target: Cholinesterase (Homo sapiens, UniProt P06276); test: Inhibition of human serum BCHE using butyrylthiocholine iodide as substrate preincubated for 5 mins followed by DTNB addition for 5 mins and subsequent addition of substrate measured after 3 mins by Ellman's method
[5] = system: PC-12; test: Protection against CoCl2-induced damage in rat PC12 cells assessed as cell viability at 2.5 uM preincubated for 36 hrs followed by CoCl2 addition measured after 12 hrs by MTT assay (reference value: 51.2%); assay type: functional; details: read-out: Activity
[6] = system: PC-12; test: Protection against CoCl2-induced damage in rat PC12 cells assessed as cell viability at 5 uM preincubated for 36 hrs followed by CoCl2 addition measured after 12 hrs by MTT assay (reference value: 51.2%); assay type: functional; details: read-out: Activity
[7] = system: PC-12; test: Protection against CoCl2-induced damage in rat PC12 cells assessed as cell viability at 10 uM preincubated for 36 hrs followed by CoCl2 addition measured after 12 hrs by MTT assay (reference value: 51.2%); assay type: functional; details: read-out: Activity
[8] = biological target: Cholinesterase (Equus caballus, UniProt P81908)
Description: Inhibition of equine serum BCHE using butyrylthiocholine iodide as substrate preincubated for 5 mins followed by DTNB addition for 5 mins and subsequent addition of substrate measured after 3 mins by Ellman's method

[9] = biological target: T1, Acetylcholinesterase; test: Mixed-type inhibition of human erythrocyte AChE at 2.5 to 10 nM using varying levels of acetylthiocholine iodide as substrate by Lineweaver-Burk plot analysis
[10] = in vitro; details: human, HepG2 cells
Description: Cytotoxicity against human HepG2 cells assessed as cell viability at 1.25 uM after 24 hrs by MTT assay relative to control

[11] = biological target: T1, Acetylcholinesterase; test: Potency index, ratio of tacrine IC50 to compound IC50 for inhibition of human erythrocyte AChE
[12] = Cytotoxicity against NGF-differentiated rat PC12 cells assessed as cell viability at 10 uM after 48 hrs by MTT assay relative to control; assay type: cell-based, PC-12; details: read-out: Activity
[13] = in vitro; details: human, HepG2 cells; remark: listed apart in the source
Description: Cytotoxicity against human HepG2 cells assessed as cell viability at 10 uM after 24 hrs by MTT assay relative to control

[14] = biological target: Amyloid-beta precursor protein (Homo sapiens) (UniProt P05067); test: Inhibition of self-induced amyloid beta (1 to 42) (unknown origin) aggregation measured after 24 hrs by ThT fluorescence assay
[15] = biological target: Amyloid-beta precursor protein (Homo sapiens) (UniProt P05067); test: Inhibition of self-induced amyloid beta (1 to 42) (unknown origin) aggregation at 100 uM measured after 24 hrs by ThT fluorescence assay relative to control
[16] = system: PC-12; test: Protection against CoCl2-induced damage in rat PC12 cells assessed as increase in cell viability preincubated for 36 hrs followed by CoCl2 addition measured after 12 hrs by MTT assay; assay type: functional, cell-based
[17] = biological target: Acetylcholinesterase (Electrophorus electricus) (UniProt O42275); test: Mixed-type inhibition of electric eel AChE at 2.5 to 10 nM using varying levels of acetylthiocholine iodide as substrate by Lineweaver-Burk plot analysis
[18] = in vitro; details: human, HepG2 cells; remark: listed apart in the source
Description: Cytotoxicity against human HepG2 cells assessed as cell viability at 2.5 uM after 24 hrs by MTT assay relative to control

[19] = biological target: Amyloid-beta precursor protein (Homo sapiens) (UniProt P05067); test: Inhibition of self-induced amyloid beta (1 to 42) (unknown origin) aggregation at 20 uM measured after 24 hrs by ThT fluorescence assay relative to control
[20] = in vitro; details: human, HepG2 cells; remark: listed apart in the source
Description: Cytotoxicity against human HepG2 cells assessed as cell viability at 5 uM after 24 hrs by MTT assay relative to control

Sequence of Acetylcholinesterase (Electrophorus electricus, UniProt O42275) (O42275 whole entry): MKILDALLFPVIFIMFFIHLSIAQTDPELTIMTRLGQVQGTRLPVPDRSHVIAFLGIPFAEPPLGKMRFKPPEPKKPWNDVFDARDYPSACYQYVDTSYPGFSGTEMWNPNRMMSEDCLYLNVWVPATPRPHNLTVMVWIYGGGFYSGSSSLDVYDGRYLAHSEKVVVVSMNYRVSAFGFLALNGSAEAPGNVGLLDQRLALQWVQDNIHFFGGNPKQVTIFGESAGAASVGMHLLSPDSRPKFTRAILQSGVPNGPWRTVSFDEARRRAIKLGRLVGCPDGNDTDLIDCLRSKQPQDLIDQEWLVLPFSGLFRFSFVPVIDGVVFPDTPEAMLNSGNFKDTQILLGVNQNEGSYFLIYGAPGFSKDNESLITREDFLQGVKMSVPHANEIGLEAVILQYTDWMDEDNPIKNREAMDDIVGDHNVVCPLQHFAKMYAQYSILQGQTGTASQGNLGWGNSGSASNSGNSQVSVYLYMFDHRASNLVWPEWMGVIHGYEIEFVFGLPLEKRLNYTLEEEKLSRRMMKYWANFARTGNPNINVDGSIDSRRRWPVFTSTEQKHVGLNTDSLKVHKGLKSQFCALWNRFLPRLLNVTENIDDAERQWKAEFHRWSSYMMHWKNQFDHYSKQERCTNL
Sequence of Cholinesterase (Equus caballus, UniProt P81908) (P81908 whole entry): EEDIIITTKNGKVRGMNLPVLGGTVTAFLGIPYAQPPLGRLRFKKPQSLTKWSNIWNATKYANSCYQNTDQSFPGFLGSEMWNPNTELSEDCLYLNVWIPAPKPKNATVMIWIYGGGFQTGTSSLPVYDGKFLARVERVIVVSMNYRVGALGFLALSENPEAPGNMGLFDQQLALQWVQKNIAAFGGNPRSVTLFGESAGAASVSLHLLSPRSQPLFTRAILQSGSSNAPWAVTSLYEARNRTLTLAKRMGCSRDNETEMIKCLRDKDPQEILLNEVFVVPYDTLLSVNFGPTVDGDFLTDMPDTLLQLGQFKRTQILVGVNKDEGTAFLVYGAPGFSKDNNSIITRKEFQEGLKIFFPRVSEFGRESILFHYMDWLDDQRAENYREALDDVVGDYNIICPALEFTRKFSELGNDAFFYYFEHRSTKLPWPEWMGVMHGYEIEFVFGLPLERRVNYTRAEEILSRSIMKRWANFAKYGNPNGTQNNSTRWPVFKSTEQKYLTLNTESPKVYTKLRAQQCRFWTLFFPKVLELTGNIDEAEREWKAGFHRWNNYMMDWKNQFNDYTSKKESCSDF
T1 sequence (P22303 whole entry): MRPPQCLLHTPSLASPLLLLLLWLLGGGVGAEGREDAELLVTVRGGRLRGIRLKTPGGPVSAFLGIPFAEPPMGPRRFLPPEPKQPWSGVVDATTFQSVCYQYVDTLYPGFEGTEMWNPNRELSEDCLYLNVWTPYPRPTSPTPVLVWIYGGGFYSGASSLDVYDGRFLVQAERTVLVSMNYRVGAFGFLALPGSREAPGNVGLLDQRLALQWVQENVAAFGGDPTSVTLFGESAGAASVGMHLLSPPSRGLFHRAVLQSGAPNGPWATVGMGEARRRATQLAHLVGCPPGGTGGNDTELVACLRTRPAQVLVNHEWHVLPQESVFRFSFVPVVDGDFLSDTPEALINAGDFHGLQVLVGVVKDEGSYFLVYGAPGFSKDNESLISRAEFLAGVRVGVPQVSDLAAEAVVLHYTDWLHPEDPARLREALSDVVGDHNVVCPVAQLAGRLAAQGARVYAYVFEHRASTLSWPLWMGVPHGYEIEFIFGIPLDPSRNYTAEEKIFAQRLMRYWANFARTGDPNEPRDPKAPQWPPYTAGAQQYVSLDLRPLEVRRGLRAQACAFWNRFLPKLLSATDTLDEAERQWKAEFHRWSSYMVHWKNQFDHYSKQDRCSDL
Sequence of Amyloid-beta precursor protein (Homo sapiens) (P05067 whole entry): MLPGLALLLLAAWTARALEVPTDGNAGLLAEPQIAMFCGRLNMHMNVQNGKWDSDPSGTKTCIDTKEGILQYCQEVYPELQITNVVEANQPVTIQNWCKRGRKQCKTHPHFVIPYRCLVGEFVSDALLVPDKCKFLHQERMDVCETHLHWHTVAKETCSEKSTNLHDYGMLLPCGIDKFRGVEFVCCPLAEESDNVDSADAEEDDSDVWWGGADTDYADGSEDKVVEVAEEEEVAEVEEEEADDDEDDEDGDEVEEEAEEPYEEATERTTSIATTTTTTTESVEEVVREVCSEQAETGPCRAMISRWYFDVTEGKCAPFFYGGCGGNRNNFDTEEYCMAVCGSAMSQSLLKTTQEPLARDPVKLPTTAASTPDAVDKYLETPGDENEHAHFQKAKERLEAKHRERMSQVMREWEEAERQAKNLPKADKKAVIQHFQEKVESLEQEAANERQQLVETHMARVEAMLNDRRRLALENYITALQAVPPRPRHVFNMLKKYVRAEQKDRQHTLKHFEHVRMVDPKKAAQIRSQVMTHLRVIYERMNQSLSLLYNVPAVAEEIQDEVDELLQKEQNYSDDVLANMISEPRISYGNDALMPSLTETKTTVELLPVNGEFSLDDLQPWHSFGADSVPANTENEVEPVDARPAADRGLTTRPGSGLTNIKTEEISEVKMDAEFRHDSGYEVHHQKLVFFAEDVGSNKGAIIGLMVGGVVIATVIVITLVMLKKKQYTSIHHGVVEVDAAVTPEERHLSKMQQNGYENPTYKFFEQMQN
Sequence of Cholinesterase (Homo sapiens, UniProt P06276) (P06276 whole entry): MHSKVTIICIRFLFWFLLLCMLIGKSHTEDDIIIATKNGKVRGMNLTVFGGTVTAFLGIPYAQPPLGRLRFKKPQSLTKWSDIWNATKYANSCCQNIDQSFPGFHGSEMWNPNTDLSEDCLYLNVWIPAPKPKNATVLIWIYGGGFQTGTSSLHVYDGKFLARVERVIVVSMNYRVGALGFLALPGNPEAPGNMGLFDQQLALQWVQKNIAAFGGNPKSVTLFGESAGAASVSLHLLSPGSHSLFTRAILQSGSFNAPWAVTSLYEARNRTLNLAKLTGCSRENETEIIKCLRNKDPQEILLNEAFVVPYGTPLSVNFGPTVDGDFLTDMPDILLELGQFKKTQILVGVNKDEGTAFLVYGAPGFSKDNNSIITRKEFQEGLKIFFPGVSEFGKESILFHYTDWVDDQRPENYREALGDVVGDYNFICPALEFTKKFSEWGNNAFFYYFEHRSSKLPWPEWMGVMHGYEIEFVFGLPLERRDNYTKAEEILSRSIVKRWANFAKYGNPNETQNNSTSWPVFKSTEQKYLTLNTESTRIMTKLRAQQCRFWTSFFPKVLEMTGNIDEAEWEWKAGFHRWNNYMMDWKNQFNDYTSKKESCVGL
Sequence of Acetylcholinesterase (Electrophorus electricus) (O42275 24-633 limits assumed): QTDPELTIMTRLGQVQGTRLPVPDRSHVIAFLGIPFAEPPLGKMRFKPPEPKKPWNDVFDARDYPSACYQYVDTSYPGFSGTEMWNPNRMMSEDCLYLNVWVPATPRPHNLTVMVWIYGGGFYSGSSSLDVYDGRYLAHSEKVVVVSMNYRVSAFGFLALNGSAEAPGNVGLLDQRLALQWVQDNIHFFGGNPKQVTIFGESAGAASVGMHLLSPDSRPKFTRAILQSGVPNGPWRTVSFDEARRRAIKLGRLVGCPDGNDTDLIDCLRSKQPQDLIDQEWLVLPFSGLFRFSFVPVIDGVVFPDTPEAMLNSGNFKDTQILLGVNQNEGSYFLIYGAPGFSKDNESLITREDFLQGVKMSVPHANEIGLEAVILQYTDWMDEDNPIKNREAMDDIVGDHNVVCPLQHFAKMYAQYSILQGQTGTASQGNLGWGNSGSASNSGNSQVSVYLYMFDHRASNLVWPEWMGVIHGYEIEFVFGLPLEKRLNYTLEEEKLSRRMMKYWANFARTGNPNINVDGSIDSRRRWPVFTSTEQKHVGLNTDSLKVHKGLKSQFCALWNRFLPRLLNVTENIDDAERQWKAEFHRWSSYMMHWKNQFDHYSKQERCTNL

SMILES | IC50 [1] [nM] | IC50 [8] [nM] | other results
COc1cc(/C=C/C(=O)NCCCCCCNc2c3c(nc4ccccc24)CCCC3)cc(OC)c1OCc1nc(C)c(C)nc1C | 2.6 | 28.6 | inhibition [2]: inactive; IC50 [3]: 108 nM; IC50 [4]: 577 nM; viability at 2.5 µM [5]: 37.7%; viability at 5 µM [6]: 15%; viability at 10 µM [7]: 11.2%
Cc1nc(C)c(COc2ccc(CC(O)C(=O)NCCCCCCCCNc3c4c(nc5ccccc35)CCCC4)cc2OCc2nc(C)c(C)nc2C)nc1C (centres undefined) | 65.1 | 3.8 | 
O=C(/C=C/c1ccc(O)cc1)NCCCCCCNc1c2c(nc3ccccc13)CCCC2 | 44.6 | 24.1 | 
COc1cc(/C=C/C(=O)NCCCCCCNc2c3c(nc4ccccc24)CCCC3)ccc1OCc1nc(C)c(C)nc1C | 14.7 | 28.3 | 
Cc1nc(C)c(COc2ccc(CC(O)C(=O)NCCCCCCNc3c4c(nc5ccccc35)CCCC4)cc2OCc2nc(C)c(C)nc2C)nc1C (centres undefined) | 270 | 1.3 | 
Cc1nc(C)c(COc2ccc(/C=C/C(=O)NCCCCCCNc3c4c(nc5ccccc35)CCCC4)cc2OCc2nc(C)c(C)nc2C)nc1C | 136 | 68.1 | 
COc1cc(/C=C/C(=O)NCCCCCCCCNc2c3c(nc4ccccc24)CCCC3)ccc1OCc1nc(C)c(C)nc1C | 304 | 174 | 
COc1cc(/C=C/C(=O)NCCCCCCCCNc2c3c(nc4ccccc24)CCCC3)cc(OC)c1OCc1nc(C)c(C)nc1C | 145 | 16.6 | 
COc1cc(/C=C/C(=O)NCCNc2c3c(nc4ccccc24)CCCC3)ccc1OCc1nc(C)c(C)nc1C | 33.1 | 502 | 
Cc1nc(C)c(COc2ccc(/C=C/C(=O)NCCCCNc3c4c(nc5ccccc35)CCCC4)cc2OCc2nc(C)c(C)nc2C)nc1C | 139 | 111 | 
COc1cc(/C=C/C(=O)NCCCCCCCCNc2c3c(nc4ccccc24)CCCC3)cc(OC)c1O | 32.5 | 9.3 | 
Cc1nc(C)c(COc2ccc(/C=C/C(=O)NCCCNc3c4c(nc5ccccc35)CCCC4)cc2)nc1C | 205 | 5.2 | 
O=C(/C=C/c1ccc(O)cc1)NCCCNc1c2c(nc3ccccc13)CCCC2 | 128 | 43.3 | 
Cc1nc(C)c(COc2ccc(CC(O)C(=O)NCCCCNc3c4c(nc5ccccc35)CCCC4)cc2OCc2nc(C)c(C)nc2C)nc1C (centres undefined) | > 1000 | > 1000 | 
COc1cc(/C=C/C(=O)NCCCCNc2c3c(nc4ccccc24)CCCC3)ccc1OCc1nc(C)c(C)nc1C | 188 | 32.4 | 
O=C(/C=C/c1ccc(O)cc1)NCCCCCCCCNc1c2c(nc3ccccc13)CCCC2 | 522 | 278 | 
COc1cc(/C=C/C(=O)NCCCNc2c3c(nc4ccccc24)CCCC3)cc(OC)c1O | 25.8 | 330 | 
Cc1nc(C)c(COc2ccc(/C=C/C(=O)NCCCCCCCCNc3c4c(nc5ccccc35)CCCC4)cc2)nc1C | 264 | 228 | 

SMILES | IC50 [1] [nM] | IC50 [8] [nM] | other results
O=C(/C=C/c1ccc(O)cc1)NCCNc1c2c(nc3ccccc13)CCCC2 | 110 | 302 | 
Cc1nc(C)c(COc2ccc(/C=C/C(=O)NCCCCCCCCNc3c4c(nc5ccccc35)CCCC4)cc2OCc2nc(C)c(C)nc2C)nc1C | > 1000 | 61.8 | 
COc1cc(/C=C/C(=O)NCCCCCCNc2c3c(nc4ccccc24)CCCC3)cc(OC)c1O | 3.9 | 24.3 | inhibition [9]: Active; viability at 24 h, 1.25 µM [10]: 98.4%; IC50 [3]: 65.2 nM; Ratio IC50 [11]: 2; IC50 [4]: 48.8 nM; viability at 48 h, 10 µM [12]: 131%; viability at 2.5 µM [5]: 92.4%; viability at 24 h, 10 µM [13]: 81.8%; inhibition [14]: Dose-dependent effect; inhibition [15]: 48%; viability at 5 µM [6]: 99.5%; Activity [16]: Dose-dependent effect; inhibition [17]: Active; viability at 10 µM [7]: 107%; viability at 24 h, 2.5 µM [18]: 96.3%; inhibition [19]: 47%; viability at 24 h, 5 µM [20]: 94.9%
COc1cc(/C=C/C(=O)NCCNc2c3c(nc4ccccc24)CCCC3)cc(OC)c1O | 101 | > 1000 | 
Cc1nc(C)c(COc2ccc(/C=C/C(=O)NCCCCNc3c4c(nc5ccccc35)CCCC4)cc2)nc1C | 334 | 2.3 | 
Cc1nc(C)c(COc2ccc(/C=C/C(=O)NCCCCCCNc3c4c(nc5ccccc35)CCCC4)cc2)nc1C | 304 | 147 | 
COc1cc(/C=C/C(=O)NCCCNc2c3c(nc4ccccc24)CCCC3)ccc1OCc1nc(C)c(C)nc1C | 12.2 | 22.6 | 
COc1cc(/C=C/C(=O)NCCCCNc2c3c(nc4ccccc24)CCCC3)cc(OC)c1OCc1nc(C)c(C)nc1C | 179 | > 1000 | 
Cc1nc(C)c(COc2ccc(CC(O)C(=O)NCCNc3c4c(nc5ccccc35)CCCC4)cc2OCc2nc(C)c(C)nc2C)nc1C (centres undefined) | > 1000 | 816 | 
Cc1nc(C)c(COc2ccc(CC(O)C(=O)NCCCNc3c4c(nc5ccccc35)CCCC4)cc2OCc2nc(C)c(C)nc2C)nc1C (centres undefined) | > 1000 | 165 | 
COc1cc(/C=C/C(=O)NCCCCNc2c3c(nc4ccccc24)CCCC3)cc(OC)c1O | 64.4 | 241 | 
Cc1nc(C)c(COc2ccc(/C=C/C(=O)NCCNc3c4c(nc5ccccc35)CCCC4)cc2)nc1C | 44.9 | 589 | 
Cc1c(C)c2c(c(C)c1O)CCC(C)(C(=O)O)O2 (centres undefined) [TROLOX] |  |  | viability at 10 µM [7]: 101%
COc1cc(/C=C/C(=O)NCCNc2c3c(nc4ccccc24)CCCC3)cc(OC)c1OCc1nc(C)c(C)nc1C | 65.3 | 613 | 
Cc1nc(C)c(COc2ccc(/C=C/C(=O)NCCCNc3c4c(nc5ccccc35)CCCC4)cc2OCc2nc(C)c(C)nc2C)nc1C | 13.7 | 199 | 
O=C(/C=C/c1ccc(O)cc1)NCCCCNc1c2c(nc3ccccc13)CCCC2 | 139 | 29.8 | 
COc1cc(/C=C/C(=O)NCCCNc2c3c(nc4ccccc24)CCCC3)cc(OC)c1OCc1nc(C)c(C)nc1C | 116 | > 1000 | 
Cc1nc(C)c(COc2ccc(/C=C/C(=O)NCCNc3c4c(nc5ccccc35)CCCC4)cc2OCc2nc(C)c(C)nc2C)nc1C | 108 | > 1000 | 
